Tested on: Diabetic Peripheral Neuropathy in a Mouse Induced by Streptozotocin
Test: Von Frey test (0.16 g filament), diabetic peripheral neuropathy induced by streptozotocin
Format: in vivo, C57BL/6J mice
Conditions: time course
Method: On Day 8 of acclimation, the mice in the group receiving streptozotocin and the group receiving streptozotocin+1 mg/kg xylitol were administered with streptozotocin at a dose of 200 mg/kg. A massive dose of streptozotocin destroys pancreatic cells in the mice. As a result, insulin is no longer secreted, and thus, diabetes can be developed in the mice. This day was designated as the first day of the administration (Day 0). Note that streptozotocin was administered only on the first day of administration. […]
Six to seven-week-old male C57BL/6J mice were used for the tests as with Example 7. All the mice were acclimated for seven days after arrival. Then, the mice were grouped into the following four groups: a control group, a group receiving streptozotocin, a group receiving 1 mg/kg xylitol, and a group receiving streptozotocin+1 mg/kg xylitol. Each group consisted of nine mice.
The mice in the group receiving 1 mg/kg xylitol were orally administered with xylitol at a dose of 1 mg/kg daily from Day 0. The mice in the group receiving streptozotocin+1 mg/kg xylitol were orally administered with xylitol at a dose of 1 mg/kg daily from Day 21 of administration.
The mice in the four groups described in (1) of the present example (Example 8) were placed in a cage, and the avoidance response frequency (score) was measured by pressing a filament with a bending force of 0.16 g against the back of the hind paw. […]
On Day 8 of acclimation, the mice in the group receiving streptozotocin and the group receiving streptozotocin+5 mg/kg D-threitol were administered with streptozotocin at a dose of 200 mg/kg. A massive dose of streptozotocin destroys pancreatic cells in the mice. As a result, insulin is no longer secreted, and thus, diabetes can be developed in the mice. This day was designated as the first day of the administration (Day 0). Note that streptozotocin was administered only on the first day of administration.
The mice in the group receiving 5 mg/kg D-threitol and the group receiving streptozotocin+5 mg/kg D-threitol were orally administered with D-threitol at a dose of 5 mg/kg daily from Day 0. […]
The mice in the group receiving 5 mg/kg D-threitol were orally administered with D-threitol at a dose of 5 mg/kg daily from Day 0. […]
The mice in the four groups described in (1) of the present example (Example 10) were placed in a cage, and the avoidance response frequency (score) was measured by pressing a filament with a bending force of 0.16 g against the back of the hind paw. […]
The mice in the four groups described in (1) of the present example (Example 11) were placed in a cage, and the avoidance response frequency (score) was measured by pressing a filament with a bending force of 0.16 g against the back of the hind paw. […]

[1] = streptozotocin 200 mg/kg + 5 mg/kg orally daily from Day 21 (therapy)

SMILES | avoidance response score [1] | avoidance response score (streptozotocin 200 mg/kg + 1 mg/kg orally daily from Day 21 (therapy))
OC[C@@H](O)[C@H](O)CO [D-threitol] | reduced from Day 24 onwards | –
OC[C@H](O)[C@H](O)[C@H](O)[C@@H](O)CO [L-talitol] | reduced from Day 21 onwards | –
OC[C@@H](O)[C@H](O)[C@@H](O)CO [xylitol] | – | reduced from Day 21 onwards

Reference: US20240099989A1, “AGENT FOR PREVENTING OR IMPROVING PERIPHERAL NEUROPATHY” (KINKI UNIVERSITY, priority 2021, published 2024)
